Reference: patent publication US9273341B2, “Methods for treatment of bacterial infections” (THE JOHNS HOPKINS UNVIERSITY, priority 2010, dated 2016)
Values after ≈ are worked out from the molar mass of the structure shown.

Key:
[1] = tested on: wild-type M. tuberculosis; test: microbe, parasite or virus in culture; type: cell-based; settings: Mycobacterium tuberculosis
[2] = tested on: wild-type M. tuberculosis; set-up: species or system Balb/C mice; settings: mouse, in vivo

SMILES | MIC [1] | bacterial burden (lung CFU) under treatment [2]
N[C@@H]1CON=C1O [D-cycloserine] | 5 µg/mL (≈ 49 µM) | –
NNC(=O)c1ccncc1 [isoniazid] | 0.03 µg/mL (≈ 0.219 µM) | similarly effective
